Assay results: PMC9541495, “Understanding the interaction of 14‐3‐3 proteins with hDMX and hDM2: a structural and biophysical study” (The Febs Journal, 2022)
Where a SMILES comes first, the peptide text is derived from it. [ ]: non-standard residue; d: D form. pS = N[C@@H](COP(=O)(O)O)C(=O)O

Key:
14‐3‐3η [1] = target: T1, 14‐3‐3η (Homo sapiens, UniProt Q04917); test: Fluorescence anisotropy direct titration, 14‐3‐3η; format: binding
T1 construct: full‐length proteins were concentrated by centrifugation, rebuffered in HEPES buffer; made in house; host or cells: E. coli BL21(DE3)
T1 sequence (Q04917 1-246): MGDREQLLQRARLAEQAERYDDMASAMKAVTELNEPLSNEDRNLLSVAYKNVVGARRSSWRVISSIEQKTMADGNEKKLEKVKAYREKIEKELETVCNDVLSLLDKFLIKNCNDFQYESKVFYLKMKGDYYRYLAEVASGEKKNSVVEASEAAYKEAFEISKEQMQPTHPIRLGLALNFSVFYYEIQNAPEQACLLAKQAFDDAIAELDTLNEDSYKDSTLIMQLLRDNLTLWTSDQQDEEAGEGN
Experimental: All assays were performed in 384 well plates (each experiment was run in triplicates) and data were collected by Perkin Elmer EnVision 2013 plate reader with excitation at 480 nm (30 nm bandwidth), polarised dichroic mirror at 505 nm and emission at 535 nm (40 nm bandwidth, S and P polarised). Experiments were carried out in HBS buffer (10 mM HEPES, 150 mM NaCl, pH 7.4) + 0.1% Tween 20 + 0.1% BSA). A ½ fold dilution series was performed in the titration, with plates read after 30 min, 4 h and 20–24 h. […] Collected data were processed in Microsoft Excel using the equations below. Total intensity I and anisotropy r were calculated using Equations 1 and 2 for each well. Average anisotropy was plotted against protein concentration using OriginPro and a logistic curve was fitted to give r min and r max. Using Equation 3 anisotropy was converted into fraction bound and multiplied by peptide concentration to be fitted in Origin using Equation 5 to obtain K d values.

14‐3‐3η [2] = target: T1, 14‐3‐3η; test: Isothermal titration calorimetry, peptide into 14‐3‐3η; format: binding; settings: 25 °C, HEPES pH 7.5
Experimental: (§1) […]
Moreover, such experiments provide thermodynamic data and as a label‐free method require no immobilization/functionalization of any of the binding partners. Here data were obtained by titration of the peptide into 14‐3‐3η protein (Fig. 2D,E and Fig. S7).
Isothermal titration calorimetry experiments were carried out on a MicroCal iTC200 in HBS buffer at 25°C (25 mM HEPES pH 7.5, 100 mM NaCl, 10 mM MgCl2, 0.5 mM TCEP). Peptides ([…]) in the syringe were titrated into a cell containing 14‐3‐3η ([…]). Data were fitted using MICROCAL software (Northampton, MA, USA) to give binding constant (K d), enthalpy (ΔH), entropy (ΔS) and binding stoichiometry (n).

14‐3‐3η [3] = target: T1, 14‐3‐3η; test: Surface plasmon resonance on immobilized 14‐3‐3η; format: binding; settings: multicycle kinetic format, Langmuir model, 25 °C
Experimental: as §1
Experiments were performed at 25 °C using a Biacore T200 instrument (GE Healthcare, Buckinghamshire, UK). For immobilization, the running buffer was HBS buffer (HEPES, NaCl, Tween‐20, pH 7.4). 14‐3‐3η was immobilized on an NTA sensor chip (Series S Sensor Chip GE Healthcare) using NTA reagent and Biacore Amine Coupling Kit. Briefly, 14‐3‐3η was diluted to 0.2 mg·mL^−1 and 200 µL was injected over a chip surface that had been activated with an injection of Ni^2+, followed by 140 µL of 1 : 1 NHS/EDC. A 30 µL of 0.5 M ethanolamine was then injected to cap the excess free amine groups. […] Then, 20 µL of these solutions were injected over a 14‐3‐3η immobilized surface for 1 min at the […] flow rate, followed by a 4 min regeneration period with HBS buffer. Kinetics and the binding affinity were calculated using the BIACORE evaluation software (Buckinghamshire, UK). Standard dose–response curves were fitted by plotting RUs against the peptide concentration.

14‐3‐3η [4] = target: T1, 14‐3‐3η; test: Analytical ultracentrifugation (sedimentation velocity) of 14‐3‐3η with peptide; settings: AUC‐SV; 14 μM 14‐3‐3η, protein : peptide 1 : 1 and 1 : 0.5; 10 mM HEPES, 150 mM NaCl, pH 7.4; 25 °C
Source text: The 1 : 1 stoichiometry between the doubly phosphorylated peptides and 14‐3‐3 contrasts with previously reported work, although it may be that the length and/or accessible conformation of the hDMX and hDM2 peptides are incompatible with the simultaneous engagement of both 14‐3‐3 protomers in the dimeric structure. To further explore this behaviour and understand the basis of cooperativity and affinity enhancement we performed additional experiments. To exclude the possible formation of higher‐order oligomers (e.g. 14‐3‐3 tetramers held together by two peptides bridging two dimers), an analytical ultracentrifugation experiment was performed. The 14‐3‐3η (at the concentration of 14 μM, approximately corresponding to the second binding events observed in FA, Fig. 2C) and hDMX335‐373 ^pSer342/pSer367 peptide in two different concentration ratios (1 : 1 and 1 : 0.5, protein vs. peptide) were analysed. […] The second binding event observed only in fluorescence anisotropy experiments, may represent a further non‐specific binding event or an interaction linked to 14‐3‐3 dimerization and will be investigated in future work.
AUC‐SV experiments were performed using a Beckman Coulter Optima XL‐I ultracentrifuge. […] The diffusion‐deconvoluted sedimentation coefficient distributions c(s) were calculated using the SEDFIT program (Bethesda, MD, USA). […]

all isoforms of 14‐3‐3 = test: Fluorescence anisotropy assays with all isoforms of 14‐3‐3 (result in words); format: binding, human; settings: FAM tracer peptide 50 nM, 0.1 nM - 300 µM protein, 10 mM HEPES, 150 mM NaCl, 0.1% Tween 20, 0.1% BSA pH 7.4; n = 3
Source text: 14‐3‐3 proteins were titrated against a constant concentration of the tracer resulting in an increase of anisotropy upon engaging 14‐3‐3 proteins (Fig. 2A–C for 14‐3‐3 binding hDMX sequences and Figs S4–S6, for 14‐3‐3 binding hDM2 sequences, non‐binding sequence, and unphosphorylated controls). A noteworthy feature of the data is that different maximum anisotropy levels were observed between hDMX or hDM2 peptides and 14‐3‐3 isoforms, indicating different diffusion properties of the fluorophore when bound to the different 14‐3‐3 isoforms. […]
All assays were performed in 384 well plates (each experiment was run in triplicates) and data were collected by Perkin Elmer EnVision […] plate reader with excitation at 480 nm (30 nm bandwidth), polarised dichroic mirror at 505 nm and emission at 535 nm (40 nm bandwidth, S and P polarised). […] A ½ fold dilution series was performed in the titration, with plates read after 30 min, 4 h and 20–24 h. […] Total intensity I and anisotropy r were calculated using Equations 1 and 2 for each well. […]
Figure S4. Fluorescence anisotropy assays for the hDM2 peptides. […]
Figure S5. Fluorescence anisotropy assays for the hDMX144-158pThr151 peptide with all isoforms of 14-3-3. […]

CC[C@H](C)[C@H](NC(=O)[C@H](CC(=O)O)NC(=O)[C@H](CO)NC(=O)[C@@H](NC(=O)[C@H](COP(=O)(O)O)NC(=O)[C@H](CC(C)C)NC(=O)[C@H](CO)NC(=O)[C@H](Cc1c[nH]cn1)NC(=O)[C@@H](NC(=O)[C@H](CC(C)C)NC(=O)[C@H](CCCCN)NC(=O)[C@H](CO)NC(C)=O)[C@@H](C)O)[C@@H](C)O)C(=O)N[C@H](C(=O)N[C@@H](C)C(=O)N[C@H](C(=O)N1CCC[C@H]1C(=O)N[C@@H](CCC(=O)O)C(=O)N[C@@H](CCCCN)C(=O)N[C@@H](CCC(=O)O)C(=O)N[C@@H](CC(N)=O)C(=O)N[C@@H](CCC(=O)O)C(=O)NCC(=O)N[C@@H](CC(N)=O)C(=O)N[C@@H](CC(=O)O)C(=O)N[C@H](C(=O)N1CCC[C@H]1C(=O)N[C@@H](CC(=O)O)C(=O)N[C@@H](CS)C(=O)N[C@@H](CCCNC(=N)N)C(=O)N[C@@H](CCCNC(=N)N)C(=O)N[C@H](C(=O)N[C@H](C(=O)N[C@@H](COP(=O)(O)O)C(=O)N[C@@H](C)C(=O)N1CCC[C@H]1C(=O)N[C@H](C(=O)N[C@H](C(=O)N[C@@H](CCCNC(=N)N)C(=O)N1CCC[C@H]1C(N)=O)C(C)C)C(C)C)[C@@H](C)CC)[C@@H](C)O)C(C)C)[C@@H](C)CC)[C@@H](C)O [hDMX335‐373 ^pSer342/pSer367]
fold higher affinity Kd1 of doubly phosphorylated peptide compared to singly phosphorylated peptide (14‐3‐3η [1]; FA, 14‐3‐3η, compared to hDM2_160‐171 ^pSer166 (hDM2 peptide) or hDMX361‐374 ^pSer367 (hDMX peptide)): 3 fold
∆G (ITC), 14‐3‐3η (14‐3‐3η [2]; acetyl labelled peptides): -10.7 kcal/mol
n (binding stoichiometry, ITC) (14‐3‐3η [2]; acetyl peptides, 14‐3‐3η): 0.94
‐T∆S (ITC) (14‐3‐3η [2]; acetyl peptides, 14‐3‐3η): -5.4 kcal/mol
∆H (ITC) (14‐3‐3η [2]; acetyl peptides, 14‐3‐3η): -5.28 ± 0.17 kcal/mol
koff (14‐3‐3η [3]): 0.0048 s⁻¹
kon (14‐3‐3η [3]): 1.51e+06 M⁻¹ s⁻¹
sedimentation coefficient of 14‐3‐3η with peptide vs protein alone (in words) (14‐3‐3η [4]): remained unchanged

CC[C@H](C)[C@H](NC(=O)[C@@H](NC(=O)[C@H](CCCNC(=N)N)NC(=O)[C@H](CCCNC(=N)N)NC(=O)[C@H](CS)NC(=O)[C@H](CC(=O)O)NC(C)=O)[C@@H](C)O)C(=O)N[C@@H](COP(=O)(O)O)C(=O)N[C@@H](C)C(=O)N1CCC[C@H]1C(=O)N[C@H](C(=O)N[C@H](C(=O)N[C@@H](CCCNC(=N)N)C(=O)N1CCC[C@H]1C(=O)N[C@@H](CCCCN)C(N)=O)C(C)C)C(C)C [hDMX361‐374 ^pSer367] (Ac-DCRRTI[pS]APVVRPK-NH2)
Kd (14‐3‐3η [1]; FA direct titration, FAM‐Ahx tracer peptide 50 nM, pH 7.4, 1:1 fit, n = 3, read-out: K d, 14‐3‐3η): 98.8 ± 4.6 nM
koff (14‐3‐3η [3]): 0.121 s⁻¹
kon (14‐3‐3η [3]): 389000 M⁻¹ s⁻¹

X‐STSRKRT pT EDDIPTL‐NH2 [hDMX144‐158 ^pThr151, hDMX‐derived phosphopeptide, N‐terminal acetyl (ITC, SPR, crystallography) or FAM‐Ahx (FA tracer), C‐terminal amide]
FA response / affinity with 14‐3‐3 proteins, all isoforms (in words) (all isoforms of 14‐3‐3): no response
